# B1: vMIP-II: KSHV-encoded human chemokine homologue (protein, UniProt Q98157 21-94, looked up)
# Viral macrophage inflammatory …: GDTLGASWHRPDKCCLGYQKRPLPQVLLSSWYPTSQLCSKPGVIFLTKRGRQVCADKSKDWVKKLMQQLPVTAR
# B2: MIP-1α: human chemokine (protein, UniProt P10147 24-92, looked up)
# C-C motif chemokine 3: SLAADTPTACCFSYTSRQIPQNFIADYFETSSQCSKPGVIFLTKRSRQVCADPSEEWVQKYVSDLELSA
# How the values were obtained:
# [1] = system: T-cell subpopulations moving toward or away from SDF-1α; assay: Inhibitor pretreatment of T-cells in SDF-1α transwell transmigration assay; format: cell-based, human; settings: cells pretreated with inhibitor; for effect on chemotaxis to SDF-1α: peak chemotaxis at 100 ng/ml SDF-1α; for effect on fugetaxis from SDF-1α: peak fugetaxis at 1 or 10 μg/ml SDF-1α
# Experimental: (§1) Three chemotaxis assays were used in this study. First, quantitative chemotaxis transmigration assays were performed using a transwell system (Corning Inc., NY) (6.5 mm diameter, 5 μm pore size, polycarbonate membrane) as previously described^13. Purified T-cell and thymocyte subpopulations (5×10^4 cells) were added to the upper chamber of each well in a total volume of 150 μl of IMDM alone. […] Cells were pretreated with pertussis toxin (PTX) 100 ng/ml for 1 hour, genistein (1 μg/ml for 20 minutes), herbimycin (1 μM for 20 minutes) or wortmannin (1 μM for 20 minutes) (Sigma Chemical Company, St Louis, Mo.) in a tissue culture incubator at 37° C. and 5% CO2 prior to their addition to the upper chambers of the transwells in selected experiments.
# (§2) Transwells prepared in this way were incubated for 3 hours at 37° C., 5% CO2 incubator. Cells were harvested from the lower chamber after 3 hours and cell counts, immunophenotype and CXCR-4 chemokine receptor expression determined.
# (§3) Cells were pretreated with anti-CXCR-4 (Pharmingen, San Diego, Calif.) at 20 μg/ml for 30 minutes at room temperature, pertussis toxin (PTX) (100 ng/ml for 1 hour at 37° C.), genistein (1 μg/ml for 20 minutes at 37° C.), herbimycin ([…] for 20 minutes 37° C.), wortmannin (1 μM for 20 minutes at 37° C.), 8-Br-cAMP (100 μM for 15 minutes at room temperature) or 8-Br-cGMP (100 μM for 15 minutes at room temperature) (Sigma Chemical Company, St Louis, Mo.) prior to their addition to the upper chambers of the transwells in selected experiments. Transwells prepared in this way were incubated for 3 hours at 37° C./5% C02 incubator. Cells were harvested from the lower chamber after 3 hours and cell counts performed using a hemocytometer.
# CD8+CD45RA+ T-cells = assay: Transwell transmigration assay with recombinant HIV-1IIIB gp120 and inhibitors; format: cell-based, human; settings: cells pretreated with inhibitor
# Experimental: Purified T-cell and thymocyte subpopulations (5×10^4 cells) were added to the upper chamber of each well in a total volume of 150 μl of IMDM alone.
# as §3
# Jurkat T-cells = assay: Transwell transmigration of Jurkat T-cells to HepG2CM fractions, with inhibitors; format: cell-based, human; settings: Jurkat cells pretreated, 100 μM for 15 minutes
# Experimental: The HepG2 cell line (derived from a human hepatocarcinoma-ATCC no:HB-8065, ATCC, Manassas, Va.) was grown to confluency in MEM+10% heat inactivated fetal calf serum+penicillin/streptomycin+L-glutamine. Confluent HepG2 cells were then transferred into serum free medium for 48 hours and the serum free conditioned medium (HepG2CM) was harvested from these cultures. HepG2CM was filtered through a 0.4 μm filter prior to use in transmigration assays or in the Fugetaxin separation system detailed below.
# 200 ml of HepG2CM were loaded onto a 5-ml HiTrap heparin column (Pharmacia) equilibrated with 10 mM Na phosphate, pH 7. The column was eluted with step increasing concentration of NaCl. […] A cation exchange column, HiTrap Sp Sepharose (Pharmacia), was used as a second step of purification. The active fraction from the Heparin column was dialysized against 50 mM MES, pH6.4 and loaded onto a 1-ml HiTrap Sp column equilibrated with 50 mM MES, pH6.4. The column was then eluted with a linear gradient of NaCl concentration. • 3. […] The active fraction eluted from the HiTrap Sp column in the previous step was then dialysized with 20 mM Tris, pH8.0 and further fractionated using a MonoQ HR5/5 column (Pharmacia). The column was then eluted with a linear gradient of NaCl concentration.
# We examined the biology of the fugetactic activity of Fraction 18 with in vitro and in vivo transmigration assay systems. […]
# [2] = system: adult peripheral blood T-cell subpopulations; assay: Transwell transmigration assay with SDF-1α, adult peripheral blood T-cells; format: cell-based, human; settings: for T-cells transmigrating in response to a positive gradient of SDF-1α: SDF-1α 100 ng/ml
# From the text: Peripheral blood was obtained from 12 healthy donors (age 25-40 years, median age 31). Peripheral blood mononuclear cells (PBMC) were obtained from peripheral blood using Ficoll-Hypaque. PBMC were stained with anti-CD4 (PE), anti-CD8 (PE), anti-CD45RA (FITC), anti-CD45RO (FITC) (Becton-Dickinson, San Jose, Calif.). The CD4^+CD45RA^+, CD4^+CD45RO^+ and CD8^+CD45RA^+ or CD8^+CD45RO^+ subpopulations of peripheral blood cells were sorted using a FACS vantage sorter (Becton-Dickinson, San Jose, Calif.). […] Sorted adult peripheral blood T-cell subpopulations were cultured overnight in serum-free Iscoves modified medium (GIBCO BRL, Gaithersburg, Md.), prior to their use in chemotaxis assays.
# as §1, §2
# [3] = system: adult peripheral blood T-cell subpopulations; settings: reported in the literature; cited from earlier work
# C57/B6 mice = assay: T-cell infiltration into the site of a secondary immune response (Ova challenge, peritoneal lavage) after SDF-1; format: in vivo, mouse; settings: 24 hours
# Experimental: C57/B6 mice (Jackson Laboratories, ME) were obtained and primed subcutaneously with 100 μg chicken ovalbumin (Sigma) containing less than 0.01% LPS by the limulus assay and dissolved in 100 μl of Complete Freund's Adjuvant (CFA) (Sigma). Three days ova-primed mice were challenged by intraperitoneal (IP) injection with 100 μg of ovalbumin (Ova) dissolved in 250 μl of ddH20. […] These mice were then euthanized 24 hours following the second IP injection and peritoneal lavage with 5 mls of PBS performed with direct visualization of the peritoneal sac and its contents in order to avoid peripheral blood contamination. Peritoneal fluid cells harvested in this way contained <0.1% red blood cells. Three groups of control mice were used. In the first, C57/B6 mice were euthanized prior to Ova-priming and a peritoneal lavage performed. The second group of control mice were primed subcutaneously and challenged with Ova intraperitoneally as above and then euthanized 24 hours later. […]
# Cells harvested from the peritoneal fluid were counted with a hemocytometer and their viability determined by Trypan blue exclusion and the total viable nucleated cell count per ml of peritoneal fluid was determined. […] The proportion of T-cells of each subpopulation (CD3^+, CD3^+CD4^+, CD3^+CD8^+) was determined as a percentage of the total nucleated cell fraction in the peritoneal fluid. […]
# [4] = system: CD4+CD45RA+ and CD8+CD45RA+ fetal blood T-cells; assay: Transwell transmigration of fetal blood T-cells to SDF-1α; format: cell-based, human
# From the text: (§4) Human fetal thymi and peripheral blood samples were obtained from 16 to 22 week abortuses according to Institutional Review Board approved guidelines. Thymi were physically disaggregated and mononuclear cell suspensions generated. Thymocytes were stained with CD8 (FITC), CD3 (PE) and CD4 (APC) and sorted into purified subpopulations of triple negative immature thymocytes (TN) (CD3^−, CD4^−, CD8^−) and mature double positive (DP) (CD4^+CD8^+) and single positive (SP) thymocytes (CD3^+CD4^+ or CD3^+CD8^+) by cell sorting. Fetal blood mononuclear cells (FBMC) were prepared from fetal blood using Ficoll-Hypaque as above. FBMC were labeled with CD8 (FITC), CD3 (PE), CD4 (APC) and anti-CD45RA (FITC). Purified populations of CD4^+CD45RA^+ and CD8^+CD45RA^+ T-cells were sorted cultured overnight in serum free Iscoves modified medium prior to use in chemotaxis assays.
# (§5) Three chemotaxis assays were used in this study. First, quantitative chemotaxis transmigration assays were performed using a transwell system (Corning Inc., NY) (6.5 mm diameter, 5 μm pore size, polycarbonate membrane) as previously described^13. […]
# as §2
# [5] = system: peripheral T-cell subpopulations; assay: Semi-quantitative migration assay in methylcellulose, time lapse videomicroscopy; format: cell-based, human; settings: SDF-1α loaded at fixed position, 10 μg/ml or 100 ng/ml
# Experimental: In the third semi-quantitative migration assay, T-cell subpopulations (1×10^5 cells) were mixed with 0.5 ml of 0.5% methylcellulose (Stem Cell Technologies, Vancouver, BC) in sterile medium and plated in a 24 well plate.
# […]
# To further validate the process of concentration dependent directional movement, a third transmigration assay was used. […] The movement of a gradient across the methylcellulose was documented in independent experiments by monitoring a dye front through the culture; a process not achieving equilibrium over the duration of our incubations.
# [6] = system: TN, DP and SP subpopulations of fetal thymocytes; assay: Transwell transmigration of fetal thymocytes to SDF-1α; format: cell-based, human
# From the text: as §4, §5, §2
# [7] = system: adult peripheral blood T-cell subpopulations; assay: Semi-quantitative transmigration assay with tissue culture insert as SDF-1α reservoir; format: cell-based, human
# Experimental: The second semi-quantitative transmigration assay involved the use of a tissue culture insert (6.5 mm diameter, 0.45 μm pore size, polycarbonate membrane) (Millipore, Bedford Mass.). Adult peripheral blood T-cell subpopulations (1×10^5 cells) were plated into the wells of a 12-well tissue-culture dish in serum-free Iscove's medium. The tissue-culture plate was then incubated at 37° C. for 1 hour to allow the cells to settle evenly over the base of the well. […] The tissue culture insert was gently placed in the center of the well of the 12-well tissue-culture plate leaving a gap of 0.3 cm between the edge of the insert and the edge of the well of the tissue culture plate. The well with transwell insert was incubated for up to 18 hours at 37° C. on the heated stage of a microscope and viewed by time lapse videomicroscopy recording at 120 frames per hour or by Polaroid still photography. Maintenance of a gradient was assessed by loading of methylene blue into the insert and observing a preserved gradient of color over the incubation period.
# [8] = system: human T-cell subpopulations; assay: Transmigration of human T-cells to KSHV-infected cell supernatants and chemokines; format: cell-based
# From the text: We examined the chemotactic and fugetactic responses of human T-cell subpopulations and KSHV specific CTL clones to the KSHV proteins vMIP-I and vMIP-II and serum free supernatants from two cell-lines well known in the art that are chronically infected by KSHV and derived from human tumors, lines BCBL-1 and VG-1. BCBL-1 is a B cell line derived from a body cavity-based B lymphoma that is latently infected with HHV-8/KSHV; no EBV DNA is present in this line (Renne, R., W. et al., Nat. Med., 1996, 2:342-346).
# FIG. 7: Transmigration of human T-cells to supernatants derived from cell lines which are chronically infected with KSHV (FIG. 7A: BCBL-1, and FIG. 7B:VG-1).
# Fugetactic (black bars) and chemotactic (striped bars) migratory responses are shown.
molecule,measurement,setting,value
Nc1ncnc2c1nc(Br)n2[C@@H]1O[C@@H]2COP(=O)(O)O[C@H]2[C@H]1O [8-Br-cAMP],effect on chemotaxis to SDF-1α,[1],not chemotaxis
same,effect on fugetaxis from SDF-1α,[1],inhibited fugetaxis
same,effect on movement away from HIV-1IIIB gp120,CD8+CD45RA+ T-cells,differentially sensitive to inhibition
same,inhibition of fugetaxis induced by Fraction 18,Jurkat T-cells,95%
Nc1nc2c(nc(Br)n2[C@@H]2O[C@@H]3COP(=O)(O)O[C@H]3[C@H]2O)c(=O)[nH]1 [8-Br-cGMP],inhibition of fugetaxis induced by Fraction 18,Jurkat T-cells,did not significantly inhibit fugetaxis
O=c1c(-c2ccc(O)cc2)coc2cc(O)cc(O)c12 [genistein],effect on chemotaxis to SDF-1α,[1],inhibited chemotaxis
same,effect on fugetaxis from SDF-1α,[1],minimal effect on fugetaxis
CO[C@H]1[C@@H](OC)C[C@H](C)[C@@H](OC)C2=CC(=O)C=C(NC(=O)/C(C)=C/C=C\[C@H](OC)[C@@H](OC(N)=O)/C(C)=C/[C@@H]1C)C2=O [herbimycin],effect on chemotaxis to SDF-1α,[1],inhibited chemotaxis
same,effect on fugetaxis from SDF-1α,[1],minimal effect on fugetaxis
SDF-1α,concentration of maximal fugetaxis,[2]; CD4+CD45RA+ cells,10 µg/mL
same,T-cells transmigrating in response to a positive gradient of SDF-1α,[2]; CD4+CD45RA+ cells,85%
same,T-cells transmigrating in response to a positive gradient of SDF-1α,[2]; CD4+CD45RO+ cells,79%
same,T-cells transmigrating in response to a positive gradient of SDF-1α,[2]; CD8+CD45RA+ cells,97%
same,T-cells transmigrating in response to a positive gradient of SDF-1α,[2]; CD8+CD45RO+ cells,51%
same,concentration of maximal fugetaxis,"[2]; CD8+CD45RO+, CD8+CD45RA+ and CD4+CD45RO+ cells",1 µg/mL
same,concentration of peak chemoattractant activities,[2]; all four adult T-cell subpopulations,100 ng/mL
same,decline of chemotaxis toward SDF-1α,"[2]; concentration increased from 100 ng/ml to 10 μg/ml, all cells",≤ 27 fold
same,concentration at which agent acts as potent fugetactic agent to immune cells,[2]; mature T cells,higher than 200 ng/ml
same,concentration at which reported as lymphocyte chemoattractant,[3],lower than 100 ng/ml
same,T cell accumulation at site of Ova challenge,"C57/B6 mice; SDF-1 low dose (100 ng/ml) IP, vs sham or PBS",No significant differences
same,T cell infiltration at site of Ova challenge,"C57/B6 mice; high dose SDF-1 (5 μg/ml) IP, p=0.02 vs controls",blunted significantly below that of controls
same,concentration of maximal chemotactic responses,[4],100 ng/mL
same,direction of T-cell movement in methylcellulose,[5],away from high concentrations of SDF-1α and towards low concentrations
same,cell movement in response to SDF-1α,"[6]; TN, DP, SP fetal thymocytes and fetal blood T-cells",minimal cell movement in response to SDF-1α except in the most immature TN subset
same,fugetaxis above background chemokinesis,"[6]; thymocyte subpopulations, even at 1 μg/ml and 10 μg/ml",In no thymocyte subpopulation was fugetaxis noted above background chemokinesis levels
same,direction of T-cell migration relative to insert,[7]; insert contained 10 μg/ml SDF-1α,migrate towards the source of SDF-1α and a second population to migrate away
same,direction of T-cell migration relative to insert,[7]; insert contained SDF-1α at 100 ng/ml,Only movement toward the insert was seen
B1,fugetactic response of T-cells,[8]; 100 ng/ml,not
B2,chemotactic response of T-cell subsets,[8]; 10 ng/ml,clear chemotactic response

# From patent US7775469B2, “Purposeful movement of human migratory cells away from an agent source” (The General Hospital Corporation, priority 1999, dated 2010)
